These results are taken from patent US11286242B2 (priority 2018, dated 2022).

The subject of one assay is Colletotrichum capsici. The experiment in a line: Colletotrichum capsici (anthracnose) radial mycelial growth on Potato Dextrose Agar. The following applies: Colletotrichum truncatum, 168 h, 25° C., 60% relative humidity, seven days, read-out: control compared to the untreated check. It counts as cell-based. On the procedure: Example 5: Colletotrichum capsici (Anthracnose)
Compounds were dissolved in 0.3% DMSO & then added to Potato Dextrose Agar medium just prior to dispensing it into petri dishes. 5 mL medium with compound in the desired concentration was dispensed into 60 mm sterile petri-plates. After solidification, each plate was seeded with 5 mm size mycelial disc taken form periphery of actively growing virulent culture plate. Plates were incubated in growth chambers at 25° C. temperature and 60% relative humidity for seven days and radial growth was measured.

A further assay relates to Alternaria solani. The experiment in a line: Alternaria solani (early blight of tomato/potato) radial mycelial growth on Potato Dextrose Agar. It counts as cell-based. The following applies: 168 h, Potato Dextrose Agar, 25° C., 60% relative humidity, seven days, read-out: control compared to the untreated check. On the procedure: Example 4: Alternaria solani (Early Blight of Tomato/Potato)
Compounds were dissolved in 0.3% DMSO & then added to Potato Dextrose Agar medium just prior to dispensing it into petri dishes. 5 mL medium with compound in the desired concentration was dispensed into 60 mm sterile petri-plates. After solidification each plate was seeded with 5 mm size mycelial disc taken form periphery of actively growing virulent culture plate. Plates were incubated in growth chambers at 25° C. temperature and 60% relative humidity for seven days and radial growth was measured.

A further assay deals with Pyricularia oryzae. The experiment in a line: microbe, parasite or virus in culture. It counts as cell-based. The following applies: 168 h, read-out: control compared to the untreated check.
A further assay concerns Botrytis cinerea. The experiment in a line: Botrytis cinerea (gray mold) radial mycelial growth on Potato Dextrose Agar. It counts as cell-based. The following applies: 168 h, 22° C., 90% relative humidity, seven days, read-out: control compared to the untreated check. As to the method:
Example 3: Botrytis cinerea (Gray Mold)
Compounds were dissolved in 0.3% DMSO & then added to Potato Dextrose Agar medium just prior to dispensing it into petri dishes. 5 mL medium with compound in the desired concentration was dispensed into 60 mm sterile petri-plates. After solidification, each plate was seeded with 5 mm size mycelial disc taken form periphery of actively growing virulent culture plate. Plates were incubated in growth chambers at 22° C. temperature and 90% relative humidity for seven days and radial growth was measured.

The next assay has as its system Phakopsora pachyrhizi. The experiment in a line: Phakopsora pachyrhizi test in soybean, preventive spray. It counts as in vivo. The following applies: preventive spray on soybean plants, inoculated one day after treatment, greenhouse 25° C., 90% relative humidity, read-out: control (efficacy, disease severity rating) compared to the untreated check. An outline of the steps:
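Greenhouse soybean plants were sprayed preventively at the stated rates, with compound in 2% DMSO/acetone diluted in water. They were inoculated one day later with a 2.1×10^6 P. pachyrhizi spore suspension and held at 25° C and 90% RH. Severity (0–100%) was rated 3, 7, 10 and 15 days after application, giving % control versus untreated plants.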

The subject of another assay is Septoria lycopersici. The experiment in a line: Septoria lycopersici (leaf spot of tomato) radial mycelial growth on Potato Dextrose Agar. The assay is classed as cell-based. The following applies: 300 ppm, 25° C., 70% relative humidity, seven days. As to the method:
Example 6: Septoria lycopersici (Leaf Spot of Tomato)
Compounds were dissolved in 0.3% DMSO & then added to Potato Dextrose Agar medium just prior to dispensing it into petri dishes. 5 mL medium with compound in the desired concentration was dispensed into 60 mm sterile petri-plates. After solidification, each plate was seeded with 5 mm size mycelial disc taken form periphery of actively growing virulent culture plate. Plates were incubated in growth chambers at 25° C. temperature and 70% relative humidity for seven days and radial growth was measured.

Structures are written as SMILES.

Turning to `CS(=O)(=Nc1ccc(-c2noc(C(F)(F)F)n2)cc1)c1ccc(Cl)cc1` (centres unmarked) [Compound 13, (4-chlorophenyl)(methyl)((4-(5-(trifluoromethyl)-1,2,4-oxadiazol-3-yl)phenyl)imino)-λ^6-sulfanone], the inhibition of growth at 300 ppm with Colletotrichum capsici, with Alternaria solani and with Pyricularia oryzae was over 70% in each case.

As for `CS(=O)(=Nc1ccc(-c2noc(C(F)(F)F)n2)cc1)c1cccc(F)c1` (centres unmarked) [Compound 14, (3-fluorophenyl)(methyl)((4-(5-(trifluoromethyl)-1,2,4-oxadiazol-3-yl)phenyl)imino)-λ^6-sulfanone], the inhibition of growth at 300 ppm in the assay on Botrytis cinerea, in the assay on Alternaria solani and in the assay on Pyricularia oryzae was over 70% throughout. In addition, in the assay on Phakopsora pachyrhizi, the pest or weed control at 500 ppm is over 90%.

In the case of `CS(=O)(=Nc1ccc(-c2noc(C(F)(F)F)n2)cc1)c1ccncc1` (centres unmarked) [Compound 15, methyl(pyridin-4-yl)((4-(5-(trifluoromethyl)-1,2,4-oxadiazol-3-yl)phenyl)imino)-λ^6-sulfanone], the inhibition of growth at 300 ppm in the assay with Botrytis cinerea, in the assay with Colletotrichum capsici, in the assay with Alternaria solani and in the assay on Pyricularia oryzae was over 70% each time. The pest or weed control at 500 ppm with Phakopsora pachyrhizi was over 90%.

As to `CS(=O)(=Nc1ccc(-c2noc(C(F)(F)F)n2)cc1)c1ccc(F)cc1` (centres unmarked) [Compound 17, (4-fluorophenyl)(methyl)((4-(5-(trifluoromethyl)-1,2,4-oxadiazol-3-yl)phenyl)imino)-λ^6-sulfanone], the inhibition of growth at 300 ppm in the assay with Botrytis cinerea, in the assay with Colletotrichum capsici, with Alternaria solani and in the assay with Pyricularia oryzae was over 70% in each case. Further, the pest or weed control at 500 ppm in the assay on Phakopsora pachyrhizi was over 90%.

With `CS(=O)(=Nc1ccc(-c2noc(C(F)(F)F)n2)cc1)c1ccccc1` (centres unmarked) [Compound 18, methyl(phenyl)((4-(5-(trifluoromethyl)-1,2,4-oxadiazol-3-yl)phenyl)imino)-λ^6-sulfanone], the inhibition of growth at 300 ppm in the assay on Colletotrichum capsici, with Alternaria solani and with Pyricularia oryzae was over 70% throughout. Further, the pest or weed control at 500 ppm in the assay on Phakopsora pachyrhizi is over 90%.

For the compound `CS(=O)(=NCc1ccc(-c2noc(C(F)(F)F)n2)cc1)c1ccc(Br)cc1` (centres unmarked) [Compound 22, (4-bromophenyl)(methyl)((4-(5-(trifluoromethyl)-1,2,4-oxadiazol-3-yl)benzyl)imino)-λ^6-sulfanone], the inhibition of growth at 300 ppm in the assay on Colletotrichum capsici and in the assay on Pyricularia oryzae was over 70% each time. The pest or weed control at 500 ppm with Phakopsora pachyrhizi was over 90%.

As for `COc1ccc(S(C)(=O)=NCc2ccc(-c3noc(C(F)(F)F)n3)cc2)cc1` (centres unmarked) [Compound 23, (4-methoxyphenyl)(methyl)((4-(5-(trifluoromethyl)-1,2,4-oxadiazol-3-yl)benzyl)imino)-λ^6-sulfanone], the inhibition of growth at 300 ppm in the assay on Botrytis cinerea, in the assay on Colletotrichum capsici, in the assay on Alternaria solani and in the assay on Pyricularia oryzae was over 70% each time. The pest or weed control at 500 ppm in the assay on Phakopsora pachyrhizi was over 90%.

As to `COc1ccc(S(C)(=O)=Nc2ccc(-c3noc(C(F)(F)F)n3)nc2)cc1` (centres unmarked) [Compound 108, (4-methoxyphenyl)(methyl)((6-(5-(trifluoromethyl)-1,2,4-oxadiazol-3-yl)pyridin-3-yl)imino)-λ^6-sulfanone], the inhibition of growth at 300 ppm in the assay with Botrytis cinerea and with Alternaria solani was over 70% each time. Besides, the pest or weed control at 500 ppm with Phakopsora pachyrhizi is over 90%.

As for `CS(=O)(=Nc1ccc(-c2noc(C(F)(F)F)n2)nc1)c1ccccc1` (centres unmarked) [Compound 109, methyl(phenyl)((6-(5-(trifluoromethyl)-1,2,4-oxadiazol-3-yl)pyridin-3-yl)imino)-λ^6-sulfanone], the inhibition of growth at 300 ppm with Botrytis cinerea and with Alternaria solani was over 70% in each case. Besides, the pest or weed control at 500 ppm in the assay on Phakopsora pachyrhizi is over 90%.

With `O=S1(=Nc2ccc(-c3noc(C(F)(F)F)n3)cc2)CCOCC1` [Compound 133, 4-((4-(5-(trifluoromethyl)-1,2,4-oxadiazol-3-yl)phenyl)imino)-1,4λ^6-oxathiane 4-oxide], the inhibition of growth at 300 ppm in the assay on Botrytis cinerea, in the assay with Colletotrichum capsici and in the assay on Pyricularia oryzae was over 70% throughout.

As for `O=S1(=Nc2ccc(-c3noc(C(F)(F)F)n3)cc2)CCCCC1` [Compound 134, 1-((4-(5-(trifluoromethyl)-1,2,4-oxadiazol-3-yl)phenyl)imino)hexahydro-1λ^6-thiopyran 1-oxide], in the assay with Pyricularia oryzae, the inhibition of growth at 300 ppm was over 70%. The “control compared to the untreated check” value with Septoria lycopersici was “more than 70%”.

For the compound `O=C(NS(=O)(=O)c1ccc(Cl)cc1Cl)c1ccc(-c2noc(C(F)(F)F)n2)cc1` [Compound 156, N-((2,4-dichlorophenyl)sulfonyl)-4-(5-(trifluoromethyl)-1,2,4-oxadiazol-3-yl)benzamide], the inhibition of growth at 300 ppm with Botrytis cinerea and in the assay with Colletotrichum capsici was over 70% each time.

Consider `CS(=O)(=NC(=O)C1CC1)c1ccc(-c2noc(C(F)(F)F)n2)cc1` (centres unmarked) [Compound 181, N-(methyl(oxo)(4-(5-(trifluoromethyl)-1,2,4-oxadiazol-3-yl)phenyl)-λ^6-sulfaneylidene)cyclopropanecarboxamide], for which the inhibition of growth at 300 ppm with Colletotrichum capsici and in the assay with Pyricularia oryzae was over 70% throughout.
